These are literature values, as cited in US11278511B2, “Sports health performance composition” (REV Pharmaceuticals, Inc., priority 2016, dated 2022).

The Cmax is the highest concentration seen after dosing.

The subject of data set [1] is urinary cGMP and nitrate excretion.
Data set [2] concerns humans.
[3] abbreviates: IV infusion or oral, doses 6 to 30 gm, humans.

Where two headings read alike, the source gives them in different places.

`N=C(N)NCCC[C@H](N)C(=O)O` [L-arginine]: in data set [1] (6 gm IV), the “urinary cGMP excretion” value is “significant increases” and the urinary nitrate excretion result is listed as “significant increases”. Further, in data set [1] (30 gm IV), the “urinary cGMP excretion” value is “significant increases” and the urinary nitrate excretion entry was “significant increases”. Also, where the note is “6 gm IV”, the peak concentration (Cmax) was 822 µM. For the same compound, for the setting “6 gm oral”, the Cmax is 310 µM. Further, for the setting “30 gm IV”, the Cmax is 6220 µM. For the same compound, the Half life (IV) was 1 h. For the same compound, the Half life (PO) is 1.5 h. Also, the changes in hemodynamics result in data set [2] (6 gm doses) is reported as “No significant changes”. Further, in data set [2] (30 gm IV), the blood pressure entry is listed as “significantly decreased” and the total peripheral resistance entry is given as “significantly decreased”. Moreover, in data set [2] (setting [3]), the endothelium-dependent vasodilation result is listed as “improved endothelium-dependent vasodilation”, the muscle blood flow entry is “improved muscle blood flow” and the peripheral vasodilation entry is “induced peripheral vasodilation”.
